Tested on: 997726-040-R-J2-PDC tumor spheroids, viability
Experiment: Anticancer human tumor 997726-040-R-J2-PDC patient-derived squamous cell lung carcinoma cell line growth inhibition [PI3K]
Details: spheroids with HUVEC and MSC; for IC50: curve of first compound; for viability, T/C: stronger effect = lower value; active = viability on the fitted dose curve at most 10% of control; inactive = the rest
Summary of the method: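 Three cell types, namely tumor cells, endothelial cells and mesenchymal stem cells, formed each spheroid. Combinations with four PI3K inhibitors were screened at clinically achievable concentrations decreasing by half-log, and spheroid viability was recorded.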

[1] = second compound 0.00316 µM, first compound 0.0316 µM
[2] = second compound 0.00316 µM, first compound 0.1 µM
[3] = second compound 0.00316 µM, first compound 0.316 µM
[4] = second compound 0.00316 µM, first compound 1 µM
[5] = second compound 0.00316 µM, first compound 3.16 µM
[6] = second compound 0.00316 µM, first compound 10 µM
[7] = second compound 0.01 µM, first compound 0.0316 µM
[8] = second compound 0.01 µM, first compound 0.1 µM
[9] = second compound 0.01 µM, first compound 0.316 µM
[10] = second compound 0.01 µM, first compound 1 µM
[11] = second compound 0.01 µM, first compound 3.16 µM
[12] = second compound 0.01 µM, first compound 10 µM
[13] = second compound 0.0316 µM, first compound 0.0316 µM
[14] = second compound 0.0316 µM, first compound 0.1 µM
[15] = second compound 0.0316 µM, first compound 0.316 µM
[16] = second compound 0.0316 µM, first compound 1 µM
[17] = second compound 0.0316 µM, first compound 3.16 µM
[18] = second compound 0.0316 µM, first compound 10 µM
[19] = second compound 0.1 µM, first compound 0.0316 µM
[20] = second compound 0.1 µM, first compound 0.1 µM
[21] = second compound 0.1 µM, first compound 0.316 µM
[22] = second compound 0.1 µM, first compound 1 µM
[23] = second compound 0.1 µM, first compound 3.16 µM
[24] = second compound 0.1 µM, first compound 10 µM
[25] = second compound 0.316 µM, first compound 0.0316 µM
[26] = second compound 0.316 µM, first compound 0.1 µM
[27] = second compound 0.316 µM, first compound 0.316 µM
[28] = second compound 0.316 µM, first compound 1 µM
[29] = second compound 0.316 µM, first compound 3.16 µM
[30] = second compound 0.316 µM, first compound 10 µM
[31] = second compound 1 µM, first compound 0.0316 µM
[32] = second compound 1 µM, first compound 0.1 µM
[33] = second compound 1 µM, first compound 0.316 µM
[34] = second compound 1 µM, first compound 1 µM
[35] = second compound 1 µM, first compound 3.16 µM
[36] = second compound 1 µM, first compound 10 µM
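Also: spheroids exposed to compounds for seven days before readout.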

CC1(C)CCC(CN2CCN(c3ccc(C(=O)NS(=O)(=O)c4ccc(NCC5CCOCC5)c([N+](=O)[O-])c4)c(Oc4cnc5[nH]ccc5c4)c3)CC2)=C(c2ccc(Cl)cc2)C1 + COc1c(OCCCN2CCOCC2)ccc2c3n(c(=NC(=O)c4cnc(N)nc4)nc12)CCN3
4200 nM: IC50 (second compound 0.01 µM)
6890 nM: IC50 (second compound 0.00316 µM)
inactive: viability, T/C [1] 75.4% | viability, T/C [2] 77.4% | viability, T/C [3] 74.3% | viability, T/C [4] 81.1% | viability, T/C [5] 78.2% | viability, T/C [6] 36.9% | viability, T/C [7] 62% | viability, T/C [8] 64.6% | viability, T/C [9] 68.4% | viability, T/C [10] 60.7% | viability, T/C [11] 57.4% | viability, T/C [12] 28.9% | viability, T/C [13] 35.3% | viability, T/C [14] 36.5% | viability, T/C [15] 37.8% | viability, T/C [16] 37.7% | viability, T/C [17] 34.3% | viability, T/C [18] 21.2% | viability, T/C [19] 23.1% | viability, T/C [20] 22.9% | viability, T/C [21] 21.8% | viability, T/C [22] 23% | viability, T/C [23] 20.6% | viability, T/C [24] 9.14%
< 31.6 nM: IC50 (second compound 0.0316 µM) | IC50 (second compound 0.1 µM) | IC50 (second compound 0.316 µM) | IC50 (second compound 1 µM)
active: viability, T/C [25] 4.52% | viability, T/C [26] 6.09% | viability, T/C [27] 3.55% | viability, T/C [28] 3.55% | viability, T/C [29] 3.34% | viability, T/C [30] 2.27% | viability, T/C [31] 1.34% | viability, T/C [32] 1.27% | viability, T/C [33] 0.77% | viability, T/C [34] 0.81% | viability, T/C [35] 1.49% | viability, T/C [36] 1.38%

C[C@@H](NC(=O)c1ncnc(N)c1Cl)c1ncc(C(=O)Nc2cc(C(F)(F)F)c(Cl)cn2)s1 + COc1c(OCCCN2CCOCC2)ccc2c3n(c(=NC(=O)c4cnc(N)nc4)nc12)CCN3
active: viability, T/C [25] 6.28% | viability, T/C [26] 6% | viability, T/C [27] 7.45% | viability, T/C [28] 7.98% | viability, T/C [29] 5.89% | viability, T/C [30] 3.91% | viability, T/C [31] 2.28% | viability, T/C [32] 1.55% | viability, T/C [33] 1.77% | viability, T/C [34] 1.89% | viability, T/C [35] 1.41% | viability, T/C [36] 0.66%
> 10000 nM: IC50 (second compound 0.00316 µM) | IC50 (second compound 0.01 µM)
inactive: viability, T/C [1] 79.8% | viability, T/C [2] 104% | viability, T/C [3] 93.6% | viability, T/C [4] 96.8% | viability, T/C [5] 86% | viability, T/C [6] 57.2% | viability, T/C [7] 64.1% | viability, T/C [8] 71.6% | viability, T/C [9] 66.7% | viability, T/C [10] 68.9% | viability, T/C [11] 58.2% | viability, T/C [12] 54.8% | viability, T/C [13] 44% | viability, T/C [14] 42.9% | viability, T/C [15] 45.7% | viability, T/C [16] 47.9% | viability, T/C [17] 39.6% | viability, T/C [18] 34.1% | viability, T/C [19] 26.7% | viability, T/C [20] 25.6% | viability, T/C [21] 27.1% | viability, T/C [22] 29.2% | viability, T/C [23] 25.6% | viability, T/C [24] 19.2%
< 31.6 nM: IC50 (second compound 0.0316 µM) | IC50 (second compound 0.1 µM) | IC50 (second compound 0.316 µM) | IC50 (second compound 1 µM)

Cn1ncnc1[C@H]1c2n[nH]c(=O)c3cc(F)cc(c23)N[C@@H]1c1ccc(F)cc1 + COc1c(OCCCN2CCOCC2)ccc2c3n(c(=NC(=O)c4cnc(N)nc4)nc12)CCN3
> 100 nM: IC50 (second compound 0.00316 µM) | IC50 (second compound 0.01 µM)
active: viability, T/C (second compound 0.316 µM, first compound 0.000316 µM) 5.23% | viability, T/C (second compound 0.316 µM, first compound 0.001 µM) 5.9% | viability, T/C (second compound 0.316 µM, first compound 0.00316 µM) 5.66% | viability, T/C (second compound 0.316 µM, first compound 0.01 µM) 5.44% | viability, T/C [25] 5.95% | viability, T/C [26] 5.09% | viability, T/C (second compound 1 µM, first compound 0.000316 µM) 1.25% | viability, T/C (second compound 1 µM, first compound 0.001 µM) 1.22% | viability, T/C (second compound 1 µM, first compound 0.00316 µM) 1.38% | viability, T/C (second compound 1 µM, first compound 0.01 µM) 1.16% | viability, T/C [31] 1.33% | viability, T/C [32] 1.04%
< 0.316 nM: IC50 (second compound 0.0316 µM) | IC50 (second compound 0.1 µM) | IC50 (second compound 0.316 µM) | IC50 (second compound 1 µM)
inactive: viability, T/C (second compound 0.00316 µM, first compound 0.000316 µM) 76.4% | viability, T/C (second compound 0.00316 µM, first compound 0.001 µM) 77% | viability, T/C (second compound 0.00316 µM, first compound 0.00316 µM) 75.6% | viability, T/C (second compound 0.00316 µM, first compound 0.01 µM) 82.9% | viability, T/C [1] 77.6% | viability, T/C [2] 70.5% | viability, T/C (second compound 0.01 µM, first compound 0.000316 µM) 52% | viability, T/C (second compound 0.01 µM, first compound 0.001 µM) 56.6% | viability, T/C (second compound 0.01 µM, first compound 0.00316 µM) 61.1% | viability, T/C (second compound 0.01 µM, first compound 0.01 µM) 54.8% | viability, T/C [7] 64.2% | viability, T/C [8] 58.1% | viability, T/C (second compound 0.0316 µM, first compound 0.000316 µM) 33.7% | viability, T/C (second compound 0.0316 µM, first compound 0.001 µM) 35.3% | viability, T/C (second compound 0.0316 µM, first compound 0.00316 µM) 33.7% | viability, T/C (second compound 0.0316 µM, first compound 0.01 µM) 37.1% | viability, T/C [13] 34.1% | viability, T/C [14] 36.5% | viability, T/C (second compound 0.1 µM, first compound 0.000316 µM) 25.1% | viability, T/C (second compound 0.1 µM, first compound 0.001 µM) 22.2% | viability, T/C (second compound 0.1 µM, first compound 0.00316 µM) 26.5% | viability, T/C (second compound 0.1 µM, first compound 0.01 µM) 23.1% | viability, T/C [19] 23.2% | viability, T/C [20] 22.6%
